Laboratory results as given in patent publication US20240109925A1, “Enhanced Anti-Proliferative and Antitumor Immune Effects of Mitochondria-Targeted Hydroxyurea” (The Medical College of Wisconsin, Inc., priority 2021, published 2024).
Read-outs that look alike come from different tables or passages of the source.

Tests used:
[1] = tested on: HCT116 human colon cancer cells; assay: Cell proliferation (cell confluence), IncuCyte Live-Cell Analysis system; assay type: cell-based; conditions: for Cell Confluence (%): when control cells reached ~90% confluence, n = 4; for IC50: Homo sapiens, at ~90% confluence of control
Description: FIG. 1. Effects of HU and Mito-HUs on proliferation of HCT116 human colon cancer cells (A) Effects of HU and Mito-HUs on the proliferation of HCT116 cells were monitored in the IncuCyte Live-Cell Analysis system. The IncuCyte Analyzer provides real-time updates on cell confluence, based on segmentation of high definition-phase contrast images. Representative cell images were shown as segmentation mask illustrated in brown when control cells reached 90% confluence (vertical solid black line). (B) The IC50 values were determined at the point at which control cells reached ˜90% confluence (vertical solid black line). Relative cell confluence (control is taken as 100%) is plotted against concentration. Dashed lines represent the fitting curves used to determine the IC50 values as indicated. Data shown are the means & SD.
The following cell lines were obtained from the American Type Culture Collection (Manassas, VA), where they were regularly authenticated: HCT116 (ATCC Cat #CRL-247, human colon cancer cells) and MiaPaCa-2 (ATCC Cat #CRL-1420, human pancreatic cancer cells). All cells were cultured in a humidified incubator at 37° C. and 5% carbon dioxide. HCT116 cells were maintained in RPMI 1640 medium (Thermo Fisher Scientific, Cat #11875), supplemented with 10% fetal bovine serum. MiaPaCa-2 cells were maintained in Dulbecco's Modified Eagle Medium (Thermo Fisher Scientific, Waltham, MA; Cat #11965) supplemented with 10% fetal bovine serum. All cells were stored in liquid nitrogen and used within 20 passages after thawing.
The IncuCyte Live-Cell Analysis system (Essen Bioscience Inc., Ann Arbor, MI) was used to monitor cell proliferation (Cheng et al., 2013, 2016; Boyle et al., 2018). As shown in previous publications (Cheng et al., 2013, 2016), this imaging system is probe-free and noninvasive, and enables continuous monitoring of cell confluence over several days. The increase in the percentage of cell confluence was used as a surrogate marker of cell proliferation. In a 96-well plate, cells were plated at 1,000 cells per well in triplicates and left to adhere overnight. Cells were then treated with HU and Mito-HUs, and the cell confluency was recorded over several days in the IncuCyte Live-Cell Analysis system.

CD4 T cells = assay: In vitro differentiation of CD4 T cells (Treg / IFNg-YFP Teff), flow cytometry; assay type: cell-based, mouse; conditions: for Concentration with Maximum Effect on IFN -YFP: tested concentration with maximum effect, six days culture
Description: FIG. 4. Effects of Mito10-HU on in vitro differentiation of CD4 T cells (A) The gating strategy reflects data from one DMSO control sample. First, the total population of cells was gated (FSC-A vs SSC-A). Then, single cells were gated (SSC-W vs SSC-H). Within the single cell population, we gated on the live CD4 T cells using a fixable LIVE/DEAD stain (CD4 vs DEAD). Within the live CD4 T cells we gated on CD25+FOXP3+Tregs (FOXP3 vs CD25), as well as IFNg-YFP+CD4 T cells (IFNg-YFP vs CD4). (B) Live CD4 T cells were gated within the single cell populations, at varying concentrations of Mito10-HU, along with DMSO controls (B, top row). CD25+FOXP3+Tregs (B, middle row) and IFNg-YFP+CD4 T cells (B, bottom row) were gated within the live CD4 T cell populations, at varying concentrations of Mito10-HU, along with DMSO controls. (C) Effects of Mito10-HU on live CD4+T cells within the lymphocyte gate (C, left), the frequency of FOXP3+CD25+cells within the live CD4+T cells (C, middle), and Teff function is shown as the frequency of IFNg-YFP positive cells within the live CD4+T cells (C, right). Data shown are the means & SD, n=2 per treatment group. *p<0.05, **p<0.01 vs control.
To differentiate CD4^+ T cells into a Treg phenotype, splenocytes from SMARTA triple-reporter mice were processed and the red blood cells were lysed using an ACK (ammonium-chloride-potassium) lysis buffer. The cells were then activated with […] GP61-80 peptide (GenScript, Piscataway, NJ) and 5 ng/mL TGF-b1 (Shenandoah Biotechnology, Inc., Warwick, PA). After one day of initial skewing, […] IL-2 along with HU or Mito-HUs (n=4-20) of varying concentrations were added to the culture. Cells were cultured for six days and split once cells reached confluency; cells were replenished with IL-2 and compound (i.e., MitoHUs) accordingly. After six days in culture, cells were stained to assess the viability and phenotypic analysis via flow cytometry. LIVE/DEAD fixable violet or aqua dead cell stain (Invitrogen) was used to assess cell viability. Only live cells were gated out for further functional analysis by using a fixable LIVE/DEAD stain. First, total population of cells was gated (FSC-A vs SSC-A). Then, single cells were gated (SSC-W vs SSC-H). Within the single cell population, we gated on the live CD4 T cells using a fixable Live/Dead stain (CD4 vs DEAD). Within the live CD4 T cells, we gated on CD25^+FOXP3^+ Tregs (FOXP3 vs CD25), as well as IFNg-YFP^+ CD4 T cells (IFNg-YFP vs CD4).
The following antibodies were used for flow cytometry staining: APC-Cy7 anti-mouse CD4 (clone: GK1.5; BioLegend, San Diego, CA), APC anti-mouse CD25 (clone: PC61; BioLegend), and PE anti-mouse FOXP3 (clone: FJK-165; eBioscience, San Diego, CA). Flow cytometry data were acquired using a BD Celesta flow cytometer (BD Biosciences, San Jose, CA) flow cytometer and analyzed using FlowJo (Treestar, Inc., Ashland, OR) (FlowJo Software, 2019).

[2] = HCT-116, mean ± SD, HCT116, read-out: IC50 Cell Proliferation (FIG. 1)
[3] = HCT-116, HCT116, read-out: IC50 proliferation of HCT116 cells

Row | SMILES | Cell Confluence (%) ([1]; 10 μM) | Cell Confluence (%) ([1]; 30 μM) | Cell Confluence (%) ([1]; 100 μM) | IC50 [1, 2] [nM] | Concentration with Maximum Effect on IFN -YFP (CD4 T cells) [µM] | inhibition of proliferation of HCT116 cells ([1]; HCT116) | IC50 [1, 3] [nM] | further results
1 | NC(=O)NO [HU, Hydroxyurea] | 89.91 | 91.61 | 66.96 | 180000 ± 6700 | 200 | – | – | Cell Confluence (%) ([1]; 150 μM): 48.62%; Cell Confluence (%) ([1]; 200 μM): 31.90%; Cell Confluence (%) ([1]; 250 μM): 22.99%; Cell Confluence (%) ([1]; 300 μM): 17.30%; Cell Confluence (%) ([1]; 400 μM): 11.42%; Cell Confluence (%) ([1]; 500 μM): 8.79%; Cell Confluence (%) ([1]; 1000 μM): 5.40%; Cell Confluence (%) ([1]; 3000 μM): 3.43%
2 | NC(=O)NOCCCCCCCCCC[P+](c1ccccc1)(c1ccccc1)c1ccccc1.O=C([O-])C(F)(F)F [Mito10-HU, 10-[(carbamoylamino)oxy]-decyltriphenylphosphonium trifluoroacetate] | 26.84 | 1.74 | 1.53 | 8500 ± 410 | 12.5 | dose-dependently inhibited proliferation | 8000 | Cell Confluence (%) ([1]; 0.1 μM): 82.13%; Cell Confluence (%) ([1]; 0.3 μM): 84.69%; Cell Confluence (%) ([1]; 1 μM): 83.91%; Cell Confluence (%) ([1]; 3 μM): 64.31%; Cell Confluence (%) ([1]; 5 μM): 67.01%; Cell Confluence (%) ([1]; 12.5 μM): 13.75%; Cell Confluence (%) ([1]; 15 μM): 8.68%; Cell Confluence (%) ([1]; 20 μM): 3.45%; inhibition of cell proliferation, combination with AZD-3965 ([1]; Mito10-HU (5 μM) together with AZD-3965 (100 μM), HCT-116): synergistically inhibited; inhibition of cell proliferation, combination with syrosingopine (combination index) ([1]; Mito10-HU (5 μM) together with syrosingopine (7.5 μM), HCT116): synergistic; FOXP3+ Treg differentiation (CD4 T cells; six days): inhibited FOXP3^+ Treg differentiation and/or survival; Teff IFNg production (CD4 T cells; six days): promoted Teff IFNg production
3 | NC(=O)NOCCCCCCCCCCCC[P+](c1ccccc1)(c1ccccc1)c1ccccc1.O=C([O-])C(F)(F)F [Mito12-HU, 12-[(carbamoylamino)oxy]-dodecyltriphenylphosphonium trifluoroacetate] | – | – | – | 1800 ± 50 | 10 | dose-dependently inhibited proliferation | 1800 | –
4 | NC(=O)NOCCCCCCCCCCCCCC[P+](c1ccccc1)(c1ccccc1)c1ccccc1.O=C([O-])C(F)(F)F [Mito14-HU, 14-[(carbamoylamino)oxy]-tetradecyltriphenylphosphonium trifluoroacetate] | – | – | – | 900 ± 40 | 1.5 | dose-dependently inhibited proliferation | 740 | –
5 | NC(=O)NOCCCCCCCCCCCCCCCC[P+](c1ccccc1)(c1ccccc1)c1ccccc1.O=C([O-])C(F)(F)F [Mito16-HU, 16-[(carbamoylamino)oxy]-hexadecyltriphenylphosphonium trifluoroacetate] | – | – | – | 500 ± 10 | 0.4 | dose-dependently inhibited proliferation | 510 | –
6 | NC(=O)NOCCCCCCCCCCCCCCCCCCCC[P+](c1ccccc1)(c1ccccc1)c1ccccc1.O=C([O-])C(F)(F)F [Mito20-HU, 20-[(carbamoylamino)oxy]-eicosanyltriphenylphosphonium trifluoroacetate] | – | – | – | 230 ± 20 | 0.3 | dose-dependently inhibited proliferation | 230 | lowest concentration with maximal effect on Teff activation (CD4 T cells; IFNg-YFP): 0.3 mM
